Test results reported in US20230278987A1, “Antimicrobial Compounds and Methods” (Curza Global, LLC, priority 2019, published 2023).
≈ marks a conversion by molar mass, not a printed value. Structures can show the parent of a compound that is named as a salt. Where two headings read alike, the source gives them in different places.

Key:
[1] = tested on: E.coli S30 extract (bacterial protein synthesis); assay: E.coli S30 extract: inhibition of bacterial protein synthesis (luciferase); type: biochemical; conditions: 37° C. for 1 hour
Description: E.coli S30 extract: Inhibition of bacterial protein synthesis was determined using the E.coli S30 Extract System for Circular DNA (Promega catalog #L-2010) and Luciferase Assay Reagent (Promega catalog #E1500) with slight modifications to a published protocol. Fyfe, C., Sutcliffe, J.A. and Grossman, T.H. (2012) “Development and characterization of a Pseudomonas aeruginosa in vitro coupled transcription-translation assay system for evaluation of translation inhibitors” J. Microbiol. Methods 90(3), 256-261.
Compounds were serial diluted in 0.5 mL microcentrifuge tubes by mixing and transferring 50 µL from the highest concentration to 50 µL of water, mixing and transferring 50 µL of this 2-fold dilution to 50 µL of water. This mixing and transferring was repeated so that there are a total of 8 tubes with serial dilutions of compound at 10× the desired screening concentration that are ultimately diluted to 1× by the addition of S30 luciferase synthesis mixture. Serial dilutions of compounds were added (2 µL) to wells in a black round bottom 96-well plate. Water (2 µL) was used as a “no inhibitor” control in 4 wells/plate. No DNA control reaction mixture (20 µL; see below) was used as a control in 4 wells/plate for background luminescence. S30 luciferase synthesis mixture (18 µL; see below) was added to wells with compounds or water mixture and incubated at 37° C. for 1 hour. Reactions were stopped by transferring to 4° C. refrigerator for 5 minutes then 25 µL of luciferase activity mix was added. Luminescence was measured using a BioTek Synergy HTX plate reader. % Inhibition was determined relative to no inhibitor controls.
S30 luciferase synthesis mixture: • 445 µL S30 extract, circular • 712 µL S30 Premix without amino acids • 4.45 µL pBESTluc™ DNA (1 µg/ µL) • 78 µL complete amino acid mixture • 267 µL water
No DNA control: • 20 µL S30 extract, circular • 32 µL S30 Premix without amino acids • 7 µL complete amino acid mixture • 21 µL water

[2] = target: Rabbit Reticulocyte Lysate (eukaryotic protein synthesis); assay: Rabbit Reticulocyte Lysate: inhibition of eukaryotic protein synthesis (luciferase); type: biochemical; conditions: 30° C. for 90 minutes, read-out: retic. IC50
Description: Inhibition of eukaryotic protein synthesis was determined using the Rabbit Reticulocyte Lysate System, Nuclease-Treated from Promega (catalog #L-4960) with slight modifications to the manufacturer’s protocol. Compounds were serial diluted in 0.5 mL microcentrifuge tubes by mixing and transferring 50 µL from the highest concentration to 50 µL of water, mixing and transferring 50 µL of this 2-fold dilution to 50 µL of water. This mixing and transferring was repeated so that there are a total of 8 tubes with serial dilutions of compound at 10× the desired screening concentration that are ultimately diluted to 1× by the addition of rabbit reticulocyte luciferase synthesis mixture. Serial dilutions of compounds were added (2.5 µL) to wells in a black round bottom 96-well plate. Water (2.5 µL) was used as a “no inhibitor” control in 4 wells/plate. No RNA control reaction mixture (2 µL; see below) was used as a control in 4 wells/plate for background luminescence. Rabbit reticulocyte luciferase synthesis mixture (22.5 µL; see below) was added to wells with compounds or water mixture and incubated at 30° C. for 90 minutes. Luciferase assay reagent (25 µL) was added with luminescence measured using a BioTek Synergy HTX plate reader. % Inhibition was determined relative to no inhibitor controls.
Rabbit reticulocyte luciferase synthesis mixture: • 1,000 µL rabbit reticulocyte lysate • 5.7 µL Luciferase Control RNA (1 µg/ µL) • 26 µL complete amino acid mixture • 395 µL water
No RNA Control • 70 µL rabbit reticulocyte lysate • 2 µL complete amino acid mixture • 28 µL water

P.aeruginosa (Pa) = assay: Broth microdilution MIC against P.aeruginosa (Pa); type: cell-based; conditions: Pseudomonas aeruginosa
Description: (§1) A certified BSL-2 laboratory was used for testing. Compounds were evaluated using the broth microdilution minimum inhibitory concentration (MIC) and minimum bactericidal concentration (MBC) assays defined by Clinical and Laboratory Standards Institute (CLSI) in the M26-A guideline against S.aureus (Sa), E.coli (Ec), K.pneumoniae (Kp), A.baumannii (Ab), E.faecalis (Ef) and P.aeruginosa (Pa).
(§2) MICs were determined using the Clinical Laboratory and Standards Institute (CLSI) Broth Microdilution Method with slight modification. Clinical and Laboratory Standards Institute (2012). “Methods for dilution antimicrobial susceptibility tests for bacteria that grow aerobically; approved standard, 9th ed. M07-A9. Clinical and Laboratory Standards Institute, Wayne, PA.” Serial two-fold dilutions of compounds are prepared in sterile clear roundbottom 96-well plates.
(§3) To prepare microdilution trays, two-fold dilutions of antimicrobial agent are prepared in growth medium: Cation-Adjusted Mueller-Hinton Broth (CAMHB), or CAMHB supplemented with sodium bicarbonate (6.25 or 25 mM final concentration prepared from a 1.0 M stock solution) or CAMHB supplemented with heat inactivated human serum (Fisher Cat. # BP2657100) 0-50% by adding 200 µL of the highest concentration to be tested (64 µg/mL, for example) in row A, mixing and transferring 100 µL from row A to 100 µL growth medium in row B, then repeating the mixing and transferring through row H of the 96-well plate, discarding the excess 100 µL remaining. This slight modification to the CLSI protocol enables evaluation of MICs for 3 compounds per plate in triplicate, albeit with only 8 compound dilutions (CLSI protocol enables 2 compounds in triplicate with 10 dilutions). Bacterial suspensions are added to a final concentration of 5 × 10^4 CFU/well by adding 5 µL of a 1:10 dilution of a 0.5 McFarland suspension (1 × 10^8 CFU/mL) for each bacterium evaluated. Bacterial suspensions were prepared using the growth method described by CLSI. Well-isolated colonies (3-5 from an agar plate) were selected using a sterile loop and used to inoculate a tube containing 4 mL of CAMHB. The cultures are incubated at 35 ± 2° C. until it achieves or exceeds the turbidity of the 0.5 McFarland standard, determined by measuring A600nm (usually two to six hours). When growth exceeds a 0.5 McFarland standard, the turbidity is adjusted with broth to be equivalent to a 0.5 McFarland standard.

S.aureus (Sa) = assay: Broth microdilution MIC against S.aureus (Sa); type: cell-based; conditions: Staphylococcus aureus
Description: as §1, §2, §3

E.coli (Ec) = assay: Broth microdilution MIC against E.coli (Ec); type: cell-based; conditions: Escherichia coli
Description: as §1, §2, §3

A.baumannii (Ab) = assay: Broth microdilution MIC against A.baumannii (Ab); type: cell-based; conditions: Acinetobacter baumannii
Description: as §1, §2, §3

E.faecalis (Ef) = assay: Broth microdilution MIC against E.faecalis (Ef); type: cell-based; conditions: Enterococcus faecalis
Description: as §1, §2, §3

[3] = CAMHB supplemented with sodium bicarbonate 25 mM, read-out: Pa +bicarb 25 (MIC)
[4] = read-out: Sa + bicarb 6.25 (MIC)
[5] = read-out: E. coli + bicarb 6.25 (MIC)
[6] = read-out: Pa +bicarb 6.25 (MIC)
[7] = read-out: Ab +bicarb 6.25 (MIC)
[8] = read-out: Ef +bicarb 6.25 (MIC)

CC(C)(N)C(=O)N1CCN(C(=O)Nc2ccn(-c3ccc4c(c3)CCC(N3C[C@@H]5[C@@H](CN)[C@@H]5C3)C4)c(=O)n2)CC1 (some centres unmarked) [Compound 3]
IC50 [1]: < 0.5 µM
IC50 [2]: ≥ 1 µM

CC(C)(N)C(=O)N1CCN(C(=O)Nc2ccn(-c3ccc4c(c3)CCC(N3CC[C@@H](CN)C3)C4)c(=O)n2)CC1 (some centres unmarked) [Compound 4]
MIC (P.aeruginosa (Pa); [3]): 8 to 32 mg/L (≈ 14.9 to 59.6 µM)
IC50 [1]: < 0.5 µM
IC50 [2]: ≥ 1 µM

CC(C)(N)C(=O)N1CCN(C(=O)Nc2ccn(-c3ccc4c(c3)CCC(N3CC[C@H](CN)C3)C4)c(=O)n2)CC1 (some centres unmarked) [Compound 5]
IC50 [1]: < 0.5 µM
IC50 [2]: ≥ 1 µM

CC(C)(N)C(=O)N1CCN(C(=O)Nc2ccn(-c3ccc4c(c3)CCC(N[C@H]3CC[C@@H](N)CC3)C4)c(=O)n2)CC1 (some centres unmarked) [Compound 6]
MIC (S.aureus (Sa); CAMHB supplemented with sodium bicarbonate 25 mM, read-out: Sa + bicarb 25 (MIC)): < 8 mg/L
MIC (E.coli (Ec); CAMHB supplemented with sodium bicarbonate 25 mM, read-out: E.coli + bicarb 25 (MIC)): < 8 mg/L
MIC (P.aeruginosa (Pa); [3]): > 32 mg/L
MIC (A.baumannii (Ab); CAMHB supplemented with sodium bicarbonate 25 mM, read-out: Ab +bicarb 25 (MIC)): > 32 mg/L
MIC (E.faecalis (Ef); CAMHB supplemented with sodium bicarbonate 25 mM, read-out: Ef +bicarb 25 (MIC)): < 8 mg/L
IC50 [1]: < 0.5 µM
IC50 [2]: ≥ 1 µM

C[C@](N)(CO)C(=O)N1CCN(C(=O)Nc2ccn(-c3ccc4c(c3)CCC(N[C@H]3CC[C@H](N)C3)C4)c(=O)n2)CC1 (some centres unmarked) [Compound 24, Hydrochloride Salt]
MIC (S.aureus (Sa); [4]): > 32 mg/L
MIC (E.coli (Ec); [5]): < 8 mg/L
MIC (P.aeruginosa (Pa); [6]): > 32 mg/L
MIC (A.baumannii (Ab); [7]): > 32 mg/L
MIC (E.faecalis (Ef); [8]): > 32 mg/L

CC(C)(N)C(=O)N1CCN(C(=O)Nc2ccn(-c3ccc4c(c3)CCC(N[C@H]3C[C@H](CN)C3)C4)c(=O)n2)CC1 (some centres unmarked) [Compound 41, Hydrochloride Salt]
MIC (S.aureus (Sa); [4]): 8 to 32 mg/L
MIC (E.coli (Ec); [5]): < 8 mg/L
MIC (P.aeruginosa (Pa); [6]): > 32 mg/L
MIC (A.baumannii (Ab); [7]): > 32 mg/L
MIC (E.faecalis (Ef); [8]): > 32 mg/L

CC(C)(N)C(=O)N1CCN(C(=O)Nc2ccn(-c3ccc4c(c3)CCC(N[C@H]3C[C@@H](CN)C3)C4)c(=O)n2)CC1 (some centres unmarked) [Compound 44, Hydrochloride Salt]
MIC (S.aureus (Sa); [4]): > 32 mg/L
MIC (E.coli (Ec); [5]): 8 to 32 mg/L
MIC (P.aeruginosa (Pa); [6]): > 32 mg/L
MIC (A.baumannii (Ab); [7]): > 32 mg/L
MIC (E.faecalis (Ef); [8]): > 32 mg/L
